For orientation: MIC means the lowest concentration that inhibits growth of the organism. Low readings indicate greater potency, high ones weaker potency.

In brackets after ≈: the same amount, converted by molar mass. *1 amine or outer side, *2 acyl side, *3 side chain or, on linkers, in order; H or OH if unused. Where a SMILES comes first, the peptide text is derived from it. [ ]: non-standard residue; d: D form. The star is where a group is joined. X2 = CCC(=O)C[C@@H](O)C[C@@H](C)C[C@H](N[*:1])C(=O)[*:2]; X1 = CCC(=O)/C=C/C[C@@H](C)C[C@H](N[*:1])C(=O)[*:2]; Alaψ(CH2NMeCH2CH2OH) = C[C@@H](CN(C)CCO)N*; Decanoyl(2R-Me) = CCCCCCCC[C@@H](C)C(=O)*; Aib = CC(C)(N)C(=O)O

For 4 compounds, MIC results are on record in ChEMBL document CHEMBL1158611, “Trichoderins, novel aminolipopeptides from a marine sponge-derived Trichoderma sp., are active against dormant mycobacteria” (2010).

The test system of assay [1] is Mycobacterium tuberculosis. The experiment in a line: Antimycobacterial activity against Mycobacterium bovis BCG under aerobic condition. The class given is functional. The note with it: variant bovis BCG.
Assay [2] deals with Mycobacterium tuberculosis. Description: Antimycobacterial activity against Mycobacterium bovis BCG under dormancy-inducing hypoxic condition. It counts as functional. The settings on record: variant bovis BCG.

On to `NNC(=O)c1ccncc1` [ISONIAZID], for which the MIC was 0.03 µg/mL (≈ 0.219 µM) in assay [1] and more than 100 µg/mL in assay [2].
`CCCCCCCC[C@@H](C)C(=O)N1CCC[C@H]1C(=O)N[C@@H](C[C@H](C)C/C=C/C(=O)CC)C(=O)NC(C)(C)C(=O)NC(C)(C)C(=O)N[C@H](C(=O)N[C@H](C(=O)NC(C)(C)C(=O)NC(C)(C)C(=O)N[C@@H](C)CN(C)CCO)C(C)C)[C@@H](C)CC` [TRICHODERIN A1] ({Decanoyl(2R-Me)}-P[X1][Aib][Aib]IV[Aib][Aib]-{Alaψ(CH2NMeCH2CH2OH)}): the MIC in assay [1] and in assay [2] was 0.16 µg/mL (≈ 0.14 µM) throughout.
Regarding `CCCCCCCC[C@@H](C)C(=O)N1CCC[C@H]1C(=O)N[C@@H](C[C@H](C)C[C@H](O)CC(=O)CC)C(=O)NC(C)(C)C(=O)NC(C)(C)C(=O)N[C@H](C(=O)N[C@H](C(=O)NC(C)(C)C(=O)NC(C)(C)C(=O)N[C@@H](C)CN(C)CCO)C(C)C)[C@@H](C)CC` [TRICHODERIN A] ({Decanoyl(2R-Me)}-P[X2][Aib][Aib]IV[Aib][Aib]-{Alaψ(CH2NMeCH2CH2OH)}), the MIC in assay [1] and in assay [2] was 0.02 µg/mL (≈ 0.0172 µM) each time.
On to `CCCCCCCC[C@@H](C)C(=O)N1CCC[C@H]1C(=O)N[C@@H](C[C@H](C)C[C@H](O)CC(=O)CC)C(=O)NC(C)(C)C(=O)NC(C)(C)C(=O)N[C@H](C(=O)N[C@H](C(=O)NC(C)(C)C(=O)NC(C)(C)C(=O)N[C@@H](C)CN(C)CCO)C(C)C)C(C)C` [TRICHODERIN B] ({Decanoyl(2R-Me)}-P[X2][Aib][Aib]VV[Aib][Aib]-{Alaψ(CH2NMeCH2CH2OH)}), for which the MIC in assay [1] and in assay [2] was 0.02 µg/mL (≈ 0.0174 µM) throughout.
